Assay results reported in patent publication US20130023491A1, “BETA-CELL REPLICATION PROMOTING COMPOUNDS AND METHODS OF THEIR USE” (President and Fellows of Harvard College, priority 2009, published 2013).

Columns and labels:
[1] = system: β-cells; assay: β-cell replication by phosphohistone-H3 (PH3) and PDX-1 co-expression; assay type: cell-based, rat; settings: A10 2 μM, B8 15 μM
Protocol: Rat islets were isolated as previously described in Gotoh M, Maki T, Kiyoizumi T, Satomi S, Monaco A P: An improved method for isolation of mouse pancreatic islets. Transplantation 40:437-438, 1985, contents of which are herein incorporated by reference in their entirety. Isolated islets were cultured overnight in a tissue culture incubator. The following morning, islets were trypsinized into cellular clusters of 1-3 cells, re-suspended in islet media (Mediatech 99-786-CV; 10% FBS serum (Valley Biomedial BS3033); 8.3 mM Glucose (Sigma G7528); 1× Penicillin/Streptomycin (Invitrogen 15070-063); 1× Glutamax (Invitrogen 35050-079)) and plated into the wells of a 96-well plate (Sigma CLS3904) that had been coated with 804G (a rat bladder carcinoma cell line) conditioned media. The cellular plating density was 60 k cells/well and greater than 95% viability was confirmed at the time of plating. The islet cells were allowed 48-hours to adhere at which time the media was changed (Mediatech 99-786-CV 2% serum, 5 mM glucose, 1× pen/strep, 1× glutamax) and the cells were treated with the test compounds. For screening, compounds were tested at 1 uM concentration in duplicate. After 24-hours of compound treatment, cells were fixed with fresh 4% PFA (Electron Microscopy Services 15710) for 20 minutes and washed with PBS (VWR 45000-446). […]

[2] = system: β-cells; assay: quantification of β-cell number (PDX-1+ cell count); assay type: cell-based, rat; settings: day 6 (144 h), 5-IT 2 μM, 15 mM glucose; control wells 20%
Protocol: To quantify the number of β-cells at 0 h, 96 h and 144 h of culture, cells were plated in 96-well plates as above in the presence of vehicle only or 5-IT and 15 mM glucose; final DMSO dilution was 1:1000 in all wells. Time Oh was after cells had been allowed 48 h to adhere. Each condition was represented by 16 separate wells per plate to accommodate small fluctuations in plating density. Media changes were performed every 48 h. Cells were fixed at the appropriate time point and stored to be stained simultaneously for PDX-1. Automated cell counting was performed using the Cellomics ArrayScanVTI which identified PDX-1^+ cells.

Nc1ncnc2c1c(I)cn2[C@@H]1O[C@H](CO)[C@@H](O)[C@H]1O [A10, 5-iodotubercidin]
ratio of PH3 over PDX-1 relative to control DMSO treatment [1]: increased
increase in number of β-cells compared to time 0 [2]: 40%
